Reference: patent US9090662B2, “Dithioamine reducing agents” (WISCONSIN ALUMNI RESEARCH FOUNDATION, priority 2012, dated 2015)
Like-named read-outs stand apart in the source and are kept apart here. Marks after values point to notes of the source that are not given here.

Columns and labels:
[1] = Kinetic studies on the reduction of oxidized L-glutathione; assay type: physicochemical; details: for kobs, second-order rate constant, reduction of oxidized L-glutathione: pH 7.0, 50 mM potassium phosphate buffer, mean ± SE from three experiments
Protocol: An experiment similar to that in Example 7 was conducted with disulfide=oxidized L-glutathione. Reactions were quenched at various time points (2, 4, 6, and 8 min) and 100 μL was analyzed by HPLC (1.0 mL/min with water (5.0 mL) in 0.1% v/v TFA, followed by a linear gradient (0-40% v/v) of acetonitrile in 0.1% v/v TFA over 40 min). The extent of reduction was determined by integrating the newly formed L-glutathione reduced peak at 220 nm (retention time of 7 min). Second-order rate constants were calculated from a linear fit of the data in FIG. 1B (that is, kobs=[(1/cfinal)−(1/cinitial)]/t). Rate constants were the mean±SE from three experiments.

[2] = value from the literature, cited from earlier work
[3] = Separation using DOWEX 50WX4-400 ion-exchange resin (Ellman's assay of filtrate); assay type: physicochemical; details: 0.10 M sodium phosphate buffer, pH 8.0, 1 mM EDTA
Protocol: A reaction buffer (0.10 M sodium phosphate, pH 8.0, 1 mM EDTA) was prepared. Ellman's reagent solution was prepared by adding Ellman's reagent (4 mg) to 1 mL of the reaction buffer. Next, to 25 mL of reaction buffer (0.10 M sodium phosphate, pH 8.0, 1 mM EDTA) was added DTBA (2.2 mg, 1.27×10^−5 mol) and 1.7 g of DOWEX 50WX4-400 ion-exchange resin. The mixture was swirled for several minutes and filtered through a fritted syringe. Ellman's reagent solution (50 μL) was added to two separate vials containing 2.5 mL of reaction buffer. As a blank, 250 μL of reaction buffer was added to one of the vials, and the absorbance at 412 nm was set to zero. Filtrate (250 μL) was then added to the other vial and its absorbance was recorded. With A412=0.012 and using an extinction coefficient of ε=14,150 M^−1cm^−1, [24b, 24c] it was calculated that >99% of DTBA was retained by the resin and thus removed from solution. […] See Example 3 for a more detailed explanation of similar calculations using Ellman's assay.

[4] = target: T1, rabbit muscle creatine kinase (Oryctolagus cuniculus, UniProt P00563); experiment: Kinetic studies on the reactivation of creatine kinase (reduction of mixed disulfide at Cys283); assay type: biochemical; details: creatine kinase-Cys283-S—S-glutathione; mean ± SE from three experiments
T1 construct: Cys283 in the active site of rabbit muscle creatine kinase; from tissue; host or cells: rabbit muscle
T1 sequence (P00563 whole entry): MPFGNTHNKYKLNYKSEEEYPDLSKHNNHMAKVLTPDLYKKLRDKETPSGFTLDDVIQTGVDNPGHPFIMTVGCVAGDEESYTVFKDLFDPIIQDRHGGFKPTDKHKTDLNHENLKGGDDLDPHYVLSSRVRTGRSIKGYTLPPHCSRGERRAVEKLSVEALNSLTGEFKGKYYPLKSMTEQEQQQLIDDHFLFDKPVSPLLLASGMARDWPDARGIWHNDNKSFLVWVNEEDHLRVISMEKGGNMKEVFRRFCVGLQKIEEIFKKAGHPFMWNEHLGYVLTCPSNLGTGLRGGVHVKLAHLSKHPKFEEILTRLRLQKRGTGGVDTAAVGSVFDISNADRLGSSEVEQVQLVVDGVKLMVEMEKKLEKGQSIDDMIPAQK
Protocol: Cys283 in the active site of rabbit muscle creatine kinase was oxidized as a mixed disulfide by a procedure described previously, [28] but with a slight modification in the measurement of active enzyme. A unit of enzyme was defined as the amount required to produce 1 μmol/min of NADPH. Using an extinction coefficient for NADPH of ε=6.22 mM^−cm^−1 at 340 nm, the units of active creatine kinase in solution at a particular time were calculated. […] Enzymatic activity (%) at particular times was calculated by dividing the number of active units of enzyme by the possible number of units in the solution, and was plotted as in FIG. 2B. Values of the second-order rate constant k were determined by using eq 4 as described in Example 9, and were the mean±SE from three experiments.

papaya latex papain = target: T2, papaya latex papain (Carica papaya, UniProt P00784); experiment: Kinetic studies on the reactivation of papain (reduction of mixed disulfide at Cys25); assay type: biochemical; details: 0.10 M imidazole-HCl buffer, pH 7.0, 2 mM EDTA; for kobs, second-order rate constant, reactivation of papain: mean ± SE from three experiments
T2 construct: Cys25 in the active site of papaya latex papain; from tissue; host or cells: papaya latex
T2 sequence (P00784 134-345): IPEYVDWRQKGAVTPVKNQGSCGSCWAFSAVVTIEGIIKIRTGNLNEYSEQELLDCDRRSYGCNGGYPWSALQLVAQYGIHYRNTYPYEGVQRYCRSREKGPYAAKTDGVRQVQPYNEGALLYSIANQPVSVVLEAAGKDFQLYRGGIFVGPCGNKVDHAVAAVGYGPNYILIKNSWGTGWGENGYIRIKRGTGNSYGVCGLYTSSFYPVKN
Protocol: Cys25 in the active site of papaya latex papain was oxidized as a mixed disulfide by a procedure described previously.[25] Briefly, a stock solution of methyl methanethiosulfonate (3.5 mM) was prepared by dilution of 5 μL of methyl methanethiosulfonate with 15 mL of 0.10 M potassium phosphate buffer, pH 7.0, containing EDTA (2 mM). KCl (0.011 g, 0.15 mmol) was added to 1.5 mL of this stock solution. The solution was deoxygenated by bubbling N2(g) through it for 15 min. Next, papain (5 mg, 150 units) was added, and the resulting solution was incubated at room temperature under N2(g) for 12 h. Excess methyl methanethiosulfonate was removed by size-exclusion chromatography using a Sephadex G-25 column. The final concentration of papain was determined by A280 using ε280=5.60×10^4 M^−1cm^−1. A solution (0.26 mL) of the chromatographed protein was diluted with 4.94 mL of deoxygenated aqueous buffer (0.10 M imidazole-HCl buffer, pH 7.0, containing 2 mM EDTA). Enzyme solution (1.25 mL) was then added to four separate vials. […] The rate of change in absorbance at 410 nm was recorded at 25° C. A unit of protein is defined by the amount of enzyme required to produce 1 μmol/min of 4-nitroaniline. Using an extinction coefficient for 4-nitroaniline of ε=8,800 M^−1cm^−1 at 410 nm, [27] the number of units of active papain in solution at each time point was calculated. […] Enzymatic activity (%) at particular times was calculated by dividing the number of active units of enzyme by the possible number of units in the solution, and was plotted as in FIG. 2A. To determine the value of the second-order rate constant kobs for the reducing agents, the second-order rate equation (eq 4) was transformed into eq 5, which was fitted to the data with the program PRISM 5.0. […] Values of kobs were the mean±SE from three experiments.

[5] = Determination of thiol pKa values (pH-titration monitored by absorbance at 238 nm); assay type: physicochemical; details: for pKa: potassium phosphate buffer, mean ± SE from this work
Protocol: The thiol pKa values of DTBA were determined by measuring its absorbance at 238 nm in solutions of different pH. The deprotonated thiolate absorbs much more strongly at 238 nm than does its protonated counterpart. [15a] This attribute was exploited for determining thiol pKa values as described previously. [15b] Buffered stock solutions of K3PO4, K2HPO4, and KH2PO4 (100 mM) were degassed and flushed with N2(g) for 1 h immediately prior to use. A stock solution of DTBA (1.5 mM) in KH2PO4 was then prepared. Various combinations of the buffered stock solutions were combined in duplicate to give two identical sets of 1-mL solutions of pH 5.5-11. KH2PO4 stock solution (70 μL) was added to each replicate pair of solutions and used to set the A238 to zero. Dithiol solution (70 μL) was then added to its complimentary 1-mL vial, and its absorbance at 238 nm was recorded. The pH of the solution was then immediately measured using a Beckman pH meter, which had been calibrated prior to use with pH 7 and pH 10 standard solutions from Fisher Scientific. This process was repeated multiple times to obtain a plot of A238 vs pH (FIG. 3).
pKa values were determined by fitting the data in FIG. 3 to eq 1, which is derived from Beer's law and the definition of the acid dissociation constant. [15b] In eq 1, CT is total thiol concentration, εSH^SH is the extinction coefficient of the doubly protonated form, εSH^S− is the extinction coefficient of the singly protonated form, and εS−^S−is the extinction coefficient of the unprotonated form. Both pKa values and extinction coefficients were determined from the curve fit.

[6] = Kinetic studies on the reduction of oxidized βME; assay type: physicochemical
Protocol: The observed second-order rate constant (kobs) for a thiol-disulfide interchange reaction was determined by adapting a procedure described previously. [2e] When the disulfide is oxidized βME, a 50 mM stock solution of potassium phosphate buffer was degassed and purged with N2(g) for 30 min immediately prior to use. […] Phosphate buffer (2.5 mL) was added to the round-bottom flask containing the dithiol. Oxidized βME stock solution (2.5 mL) was then added, and the reaction mixture was stirred at room temperature under N2(g) for 1 min. The reaction mixture was quenched by the addition of 0.10 mL of 3 N HCl. The reaction mixture was passed through a 4.5-μm filter, and 100 μL of the reaction mixture was analyzed immediately by HPLC using a Varian C18 reverse-phase column. The column was eluted at 1.0 mL/min with water (5.0 mL), followed by a linear gradient (0-40% v/v) of acetonitrile/water over 40 min. The extent of reduction was determined by integrating the newly formed peak corresponding to βME at 205 nm (retention time: 8 min). This process was repeated for reaction times of 2 and 4 min. Calibration curves were generated and found to be linear over the used concentration range. The amount of residual oxidized βME was calculated, and second-order rate constants were calculated from a linear fit of the data in FIG. 1A (that is, kobs=[(1/cfinal)−(1/cinitial)]/t). […] Rate constants were the mean±SE from three experiments.

[7] = Reduction potential (E°′) from HPLC redox equilibrium with oxidized DTT; assay type: physicochemical; details: for Keq for the reaction with oxidized DTT: 50 mM potassium phosphate buffer pH 7, 24 h, room temperature
Protocol: [2g] Data were obtained by a procedure similar to that described previously. [2g, 15b] […] The flask was then flushed with N2(g) for 30 min.
A 50 mM stock solution of potassium phosphate buffer (pH 7) was degassed and purged with N2(g) for 30 min immediately prior to use. Buffer (15 mL) was added, and the reaction mixture was stirred under N2(g) for 24 h at room temperature. The reaction mixture was then quenched by the addition of 3 N HCl (1:100 dilution). The reaction mixture was passed through a 4.5-μm filter, and 100 μL of the reaction mixture was analyzed immediately by HPLC using a Waters system equipped with a Waters 996 photodiode array detector, Empower 2 software, and a Varian C18 reverse-phase column. The column was eluted at 1.0 mL/min with water (5.0 mL), followed by a linear gradient (0-40% v/v) of acetonitrile/water over 40 min. Compounds were detected by their absorbance at 205 nm. Reduced and oxidized DTBA are highly polar and elute from the column immediately (as confirmed by LC-MS). Two peaks, however, were clearly visible in the chromatogram FIG. 4). […] Calibration curves were generated and found to be linear over the used concentration range.
The procedure described in Example 5 was also performed with BMS. […] A previously reported reduction potential for BMS was E°′=−0.31 V. [2g]

[8] = value from the literature, cited from earlier work; remark: listed apart in the source
[9] = from ref. 13; cited from earlier work
Solubility in water = assay type: physicochemical; details: HCl salt
[10] = pH 5.5, 50 mM potassium phosphate buffer
[11] = pH 7.0, 50 mM potassium phosphate buffer, mean ± SE from three experiments

SMILES | kobs, second-order rate constant, reduction of oxidized L-glutathione [1] | Fraction removed from solution (retained) by Dowex 50 cation-exchange resin [3] | kobs, second-order rate constant, reactivation of creatine kinase [4] | kobs, second-order rate constant, reactivation of papain (papaya latex papain) | kobs, second-order rate constant, reduction of oxidized βME [6, 10] | kobs, second-order rate constant, reduction of oxidized βME [6, 11] | Disulfide Reduction Potential (E°′) [2] | Keq for the reaction with oxidized DTT [7] | Thiol pKa ([8]; lower (first) thiol pKa) | also measured
O[C@H](CS)[C@H](O)CS (racemic) [DTT, (2S,3S)-1,4-dimercaptobutane-2,3-diol] | 0.16 ± 0.02 M⁻¹ s⁻¹ | < 1% | 17.5 ± 1.6 M⁻¹ s⁻¹ | 91.3 ± 9.4 M⁻¹ s⁻¹ | 0.0021 ± 0.0002 M⁻¹ s⁻¹ | 0.084 ± 0.004 M⁻¹ s⁻¹ | – | – | – | Disulfide Reduction Potential (E°′) ([2]; listed as DTT (racemate)): −0.327 V^e; Residues in the reactive thiolate form ([5]; at pH 7): less than 1%; Thiol groups protonated (unreactive) ([5]; at pH 7, from lower thiol pKa […]): greater than 99%
O=S(=O)(CCS)CCS [BMS, Bis(2-mercaptoethyl)sulfone] | – | – | – | – | – | – | −0.31 V | 0.0517±0.0194 | – | Disulfide Reduction Potential (E°′) ([7]; 50 mM potassium phosphate buffer pH 7, equilibrium with oxidized DTT, assuming E°′=−0.327 V for DTT, mean ± SE from seven experiments): −0.291±0.002 V; Thiol pKa ([8]; second (higher) thiol pKa): 9.0±0.2
NCCS [Cysteamine] | – | – | – | – | – | – | −0.203 V^b | – | 8.37^c | Amino pKa [9]: 10.44
N[C@H](CS)CCS [DTBA, (2S)-2-amino-1,4-dimercaptobutane] | 0.83 ± 0.04 M⁻¹ s⁻¹ | > 99% | 15.1 ± 1.0 M⁻¹ s⁻¹ | 1342 ± 148 M⁻¹ s⁻¹ | 0.0093 ± 0.0003 M⁻¹ s⁻¹ | 0.29 ± 0.02 M⁻¹ s⁻¹ | – | 0.469±0.131 | – | kobs^DTBA/kobs^DTT, reduction of oxidized L-glutathione (fold faster than DTT) ([1]; pH 7.0): 5.2; Solubility in water (Solubility in water): high solubility in water; kobs^DTBA/kobs^DTT, reduction of papain mixed disulfide (fold faster than DTT) (papaya latex papain): 14; pKa ([5]; lower (first) thiol pKa, 0.10 M potassium phosphate buffer): 8.2 ± 0.2; pKa ([5]; second (higher) thiol pKa, in parentheses in Table 1): 9.3 ± 0.1; kobs^DTBA/kobs^DTT, reduction of oxidized βME (fold faster than DTT) ([6]; pH 5.5): 4.4; kobs^DTBA/kobs^DTT, reduction of oxidized βME (fold faster than DTT) ([6]; pH 7.0): 3.5
OCCS [βME, β-mercaptoethanol] | – | – | – | – | – | – | −0.260 V^b | – | 9.61^a | –
